From patent US20120121540A1 (priority 2007, published 2012)

Experiment: HCV replicon assay (luciferase reporter, ET cell line)
Type: cell-based
Settings: Hepatitis C virus, HCV replicon luciferase activity in ET cells
Method in brief: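 ET cells carry a stable luciferase-ubiquitin-neo/NS3-5B subgenomic HCV replicon with adaptive mutations. Compounds (0.1 nM to […], 0.5% DMSO) were added 24 h after plating, and luciferase was read 48-72 h later. EC50 came from 10-point 2-fold dilutions fitted to a Hill equation; TC50 was measured in parallel by WST-1.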

SMILES | inhibition at 10 µM
Cn1nccc1C1=CCN(C(=O)c2nc3c(C(F)(F)F)cc(-c4ccoc4)cn3c2Cl)CC1 [Compound 586, (3-Chloro-6-furan-3-yl-8-trifluoromethyl-imidazo[1,2-a]pyridine-2-yl)-[4-(2-methyl-2H-pyrazol-3-yl)-3,6-dihydro-2H-pyridin-1-yl]-methanone] | 86%
O=C(c1nc2c(C(F)(F)F)cc(-c3ccoc3)cn2c1Cl)N1CC=C(c2ccnc(F)c2)CC1 [Compound 587, (3-Chloro-6-furan-3-yl-8-trifluoromethyl-imidazo[1,2-a]pyridine-2-yl)-(2′-fluoro-3,6-dihydro-2H-[4,4′]bipyridinyl-1-yl)-methanone] | 76.9%
O=C(c1nc2c(C(F)(F)F)cc(-c3ccoc3)cn2c1Cl)N1C=C(c2cscn2)CCC1 [Compound 588, (3-Chloro-6-furan-3-yl-8-trifluoromethyl-imidazo[1,2-a]pyridin-2-yl)-(5-thiazol-4-yl-3,4-dihydro-2H-pyridin-1-yl)-methanone] | 84.5%
O=C(c1nc2c(C(F)(F)F)cc(-c3ccoc3)cn2c1Cl)N1CCC=C(c2cscn2)C1 [Compound 589, (3-Chloro-6-furan-3-yl-8-trifluoromethyl-imidazo[1,2-a]pyridin-2-yl)-(5-thiazol-4-yl-3,6-dihydro-2H-pyridin-1-yl)-methanone] | 76%
O=C(c1nc2c(C(F)(F)F)cc(-c3ccoc3)cn2c1Cl)N1C=C(c2ccccc2F)CCC1 [Compound 590, (3-Chloro-6-furan-3-yl-8-trifluoromethyl-imidazo[1,2-a]pyridine-2-yl)-[5-(2-fluoro-phenyl)-3,4-dihydro-2H-pyridin-1-yl]-methanone] | 93.9%
O=C(c1nc2c(C(F)(F)F)cc(-c3ccoc3)cn2c1Cl)N1CCC=C(c2ccccc2F)C1 [Compound 591, (3-Chloro-6-furan-3-yl-8-trifluoromethyl-imidazo[1,2-a]pyridine-2-yl)-[5-(2-fluoro-phenyl)-3,6-dihydro-2H-pyridin-1-yl]-methanone] | 96.9%
O=C(c1nc2c(C(F)(F)F)cc(-c3cn[nH]c3)cn2c1Cl)N1CC=C(c2ncccc2F)C1 [Compound 592] | 97.1%
O=C(c1nc2c(C(F)(F)F)cc(-c3ccoc3)cn2c1Cl)N1CCC(Oc2ccccc2)C1 (stereo not shown) [Compound 593, (3-Chloro-6-furan-3-yl-8-trifluoromethyl-imidazo[1,2-a]pyridin-2-yl)-(3-phenoxy-pyrrolidin-1-yl)-methanone] | 89.5%
O=C(c1nc2c(C(F)(F)F)cc(-c3ccoc3)cn2c1Cl)N1CC=C(c2ccccc2)CC1 [Compound 594, (3-Chloro-6-furan-3-yl-8-trifluoromethyl-imidazo[1,2-a]pyridin-2-yl)-(4-phenyl-3,6-dihydro-2H-pyridin-1-yl)-methanone] | 88.5%
O=C(c1nc2c(C(F)(F)F)cc(-c3ccoc3)cn2c1Cl)N1CC=C(c2ccc(F)cc2)CC1 [Compound 595, (3-Chloro-6-furan-3-yl-8-trifluoromethyl-imidazo[1,2-a]pyridin-2-yl)-[4-(4-fluoro-phenyl)-3,6-dihydro-2H-pyridin-1-yl]-methanone] | 77.2%
O=C(c1nc2c(C(F)(F)F)cc(-c3ccoc3)cn2c1Cl)N1CCN(c2ccc(F)cc2F)CC1 [Compound 596, (3-Chloro-6-furan-3-yl-8-trifluoromethyl-imidazo[1,2-a]pyridin-2-yl)-[4-(2,4-difluoro-phenyl)-piperazin-1-yl]-methanone] | 75.6%
O=C(c1nc2c(C(F)(F)F)cc(-c3ccoc3)cn2c1Cl)N1CCN(c2ncccn2)CC1 [Compound 597, (3-Chloro-6-furan-3-yl-8-trifluoromethyl-imidazo[1,2-a]pyridin-2-yl)-(4-pyrimidin-2-yl-piperazin-1-yl)-methanone] | 38.7%
O=C(c1nc2c(C(F)(F)F)cc(-c3ccoc3)cn2c1Cl)N1CCC(c2cccs2)CC1 [Compound 598, [3-chloro-6-(furan-3-yl)-8-(trifluoromethyl)imidazo[1,2-a]pyridin-2-yl][4-(thiophen-2-yl)piperidin-1-yl]methanone] | 95.9%
O=C(c1nc2c(C(F)(F)F)cc(-c3ccoc3)cn2c1Cl)N1CCC(Nc2ccccc2)C1 (stereo not shown) [Compound 599, (3-Chloro-6-furan-3-yl-8-trifluoromethyl-imidazo[1,2-a]pyridin-2-yl)-(3-phenylamino-pyrrolidin-1-yl)-methanone] | 91.1%
CC(=O)N(c1ccccc1)C1CCN(C(=O)c2nc3c(C(F)(F)F)cc(-c4ccoc4)cn3c2Cl)C1 (stereo not shown) [Compound 600, N-[1-(3-Chloro-6-furan-3-yl-8-trifluoromethyl-imidazo[1,2-a]pyridine-2-carbonyl)-pyrrolidin-3-yl]-N-phenyl-acetamide] | 76%
N#CC1(c2ccccc2)CCN(C(=O)c2nc3c(C(F)(F)F)cc(-c4ccoc4)cn3c2Cl)CC1 [Compound 601, 1-(3-Chloro-6-furan-3-yl-8-trifluoromethyl-imidazo[1,2-a]pyridine-2-carbonyl)-4-phenyl-piperidine-4-carbonitrile] | 98.3%

SMILES | inhibition at 10 µM
O=C(NC(c1ccccc1)c1cccs1)c1nc2c(C(F)(F)F)cc(-c3ccoc3)cn2c1Cl (stereo not shown) [Compound 602, 3-Chloro-6-furan-3-yl-8-trifluoromethyl-imidazo[1,2-a]pyridine-2-carboxylic Acid (phenyl-thiophen-2-yl-methyl)-amide] | 90.5%
O=C(Cc1nc2c(C(F)(F)F)cc(-c3ccoc3)cn2c1Cl)NCc1cccs1 [Compound 603, 2-[3-Chloro-6-(furan-3-yl)-8-(trifluoromethyl)imidazo[1,2-a]pyridin-2-yl]-N-(thiophen-2-ylmethyl)acetamide] | 65.8%
O=C(Cc1nc2c(C(F)(F)F)cc(-c3ccoc3)cn2c1Cl)N1CCC(c2cccc(F)c2)C1 (stereo not shown) [Compound 604, 2-[3-chloro-6-(furan-3-yl)-8-(trifluoromethyl)imidazo [1,2-a]pyridin-2-yl]-1-[3-(3-fluorophenyl)pyrrolidin-1-yl]ethanone] | 74.1%
O=C(c1nc2c(C(F)(F)F)cc(-c3ccoc3)cn2c1Cl)N1CCC(n2cnc3ccccc32)CC1 [Compound 605, (4-Benzoimidazol-1-yl-piperidin-1-yl)-(3-chloro-6-furan-3-yl-8-trifluoromethyl-imidazo[1,2-a]pyridin-2-yl)-methanone] | 3.1%
O=C(c1nc2c(C(F)(F)F)cc(-c3cn[nH]c3)cn2c1Cl)N1CCC(c2ccccc2F)CC1 [Compound 606, [3-Chloro-6-(1H-pyrazol-4-yl)-8-trifluoromethyl-imidaz [1,2-a]pyridin-2-yl]-[4-(2-fluoro-phenyl)-piperidin-1-yl]-methanone] | 87.9%
N#Cc1ccccc1C1CCN(C(=O)c2nc3c(C(F)(F)F)cc(-c4cn[nH]c4)cn3c2Cl)CC1 [Compound 607, 2-{1-[3-Chloro-6-(1H-pyrazol-4-yl)-8-trifluoromethyl-imidazo[1,2-a]pyridine-2-carbonyl]-piperidin-4-yl}-benzonitrile] | 92.2%
O=C(c1nc2c(C(F)(F)F)cc(-c3cn[nH]c3)cn2c1Br)N1CC=C(c2ccc(F)cc2)CC1 [Compound 608, [3-Bromo-6-(1H-pyrazol-4-yl)-8-trifluoromethyl-imidazo[1,2-a]pyridin-2-yl]-[4-(4-fluoro-phenyl)-3,6-dihydro-2H-pyridin-1-yl]-methanone] | 62.7%
O=C(c1nc2c(C(F)(F)F)cc(-c3cn[nH]c3)cn2c1Br)N1CC=C(c2cscn2)CC1 [Compound 609, [3-Bromo-6-(1H-pyrazol-4-yl)-8-trifluoromethyl-imidazo[1,2-a]pyridin-2-yl]-(4-thiazol-4-yl-3,6-dihydro-2H-pyridin-1-yl)-methanone] | 94.1%
O=C(c1nc2c(C(F)(F)F)cc(-c3cn[nH]c3)cn2c1Br)N1CCN(c2nccs2)CC1 [Compound 610, [3-Bromo-6-(1H-pyrazol-4-yl)-8-trifluoromethyl-imidazo[1,2-a]pyridin-2-yl]-(4-thiazol-2-yl-piperazin-1-yl)-methanone] | 68.7%
O=C(c1nc2c(C(F)(F)F)cc(-c3cn[nH]c3)cn2c1Br)N1CCC(c2nccs2)CC1 [Compound 611, [3-Bromo-6-(1H-pyrazol-4-yl)-8-trifluoromethyl-imidazo[1,2-a]pyridin-2-yl]-(4-thiazol-2-yl-piperidin-1-yl)-methanone] | 92.4%
O=C(c1cn2cc(-c3cn[nH]c3)cc(C(F)(F)F)c2n1)N1CC=C(c2nccs2)CC1 [Compound 612, [6-(1H-pyrazol-4-yl)-8-(trifluoromethyl)imidazo[1,2-a]pyridin-2-yl][4-(1,3-thiazol-2-yl)-3,6-dihydropyridin-1(2H)-yl]methanone] | 59.3%
O=C(c1nc2c(C(F)(F)F)cc(-c3ccoc3)cn2c1Cl)N1CC=C(c2cccs2)CC1 [Compound 613, (3-Chloro-6-furan-3-yl-8-trifluoromethyl-imidazo[1,2-a]pyridin-2-yl)-(4-thiophen-2-yl-3,6-dihydro-2H-pyridin-1-yl)-methanone] | 99.4%
N#Cc1c(F)cccc1C1=CCN(C(=O)c2nc3c(C(F)(F)F)cc(-c4ccoc4)cn3c2Cl)CC1 [Compound 614, 2-[1-(3-Chloro-6-furan-3-yl-8-trifluoromethyl-imidazo[1,2-a]pyridine-2-carbonyl)-1,2,3,6-tetrahydro-pyridin-4-yl]-6-fluoro-benzonitrile] | 89.7%
COc1ccc(F)c(C2=CCN(C(=O)c3nc4c(C(F)(F)F)cc(-c5ccoc5)cn4c3Cl)CC2)c1F [Compound 616, (3-Chloro-6-furan-3-yl-8-trifluoromethyl-imidazo[1,2-a]pyridin-2-yl)-[4-(2,6-difluoro-3-methoxy-phenyl)-3,6-dihydro-2H-pyridin-1-yl]-methanone] | 64.9%
O=C(c1nc2c(C(F)(F)F)cc(-c3ccoc3)cn2c1Cl)N1CC=C(c2ccc(F)nc2F)CC1 [Compound 617, (3-Chloro-6-furan-3-yl-8-trifluoromethyl-imidazo[1,2-a]pyridin-2-yl)-(2,6-difluoro-3′,6′-dihydro-2′H-[3,4′]bipyridinyl-1′-yl)-methanone] | 95%
